The values below come from paper PMC10378394 (Current Issues in Molecular Biology, 2023).

The target of one data set is Met(h) (Homo sapiens, UniProt P08581). Kind of data set: Eurofins kinase assay.
The next data set deals with T1, CSF1R (Mus musculus, UniProt P09581).
T1 construct: endogenous in cells; host or cells: mouse bone-marrow-derived macrophages (BMDMs)
Kind of data set: Western blot in BMDMs, ligand-dependent phosphorylation. To be noted: 2 h treatment, CSF1 100 ng/mL 15 min. The format is cell-based. Here is the method: (§1) HCT116, LS513, SW620, HUVECs, and HT29 cell lines were purchased from the Korean Cell Line Bank (Seoul, Korea). All cell lines were maintained in RPMI or DMEM (Gibco Inc., Billings, MT, USA) supplemented with 10% FBS (Gibco, USA) and penicillin–streptomycin in an incubator at 37 °C and 5% CO2. Bone marrow cells were isolated from the femur and tibia of mice using a single-pass bone marrow aspiration. Cells were cultured in RPMI medium supplemented with 10% FBS and 100 ng/mL CSF1 (Peprotech, Rocky Hill, NJ, USA) for 7 days to differentiate into bone-marrow-derived macrophages (BMDMs).
(§2) In 6-well plates, LS513 cells were seeded and allowed to adhere and proliferate for 24 h. […] After treatment, the cells were harvested using RIPA lysis buffer to extract cellular proteins. The cell lysates were subjected to Western blot analysis. […] The cell lysates were analyzed by Western blot using specific antibodies, such as p-CSF1R (Cell Signaling, #14591S), CSF1R (Cell Signaling, #67455S), p-TIE2 (Cell Signaling, #4221S), and TIE2 (Santa Cruz Biotechnology, Dallas, TX, USA, #sc-293414), to detect and analyze the respective proteins.

Another data set addresses T2, TIE2 (Mus musculus, UniProt Q02858).
T2 construct: endogenous in cells; host or cells: mouse bone-marrow-derived macrophages (BMDMs)
Described as above. The data set is classed as cell-based. The conditions noted are these: 2 h treatment, angiopoietin 2 100 ng/mL 15 min. Here is the method:
as §1, §2

Another data set has as its target PDGFRβ(h) (Homo sapiens, UniProt P09619). Kind of data set: Eurofins kinase assay.
A short description of data set [1]: Tolerability in mouse xenograft experiments. The data set is classed as in vivo. Here is the method: Human-derived colorectal cancer cell lines, LS513, HCT-116, and HT29, were subcutaneously transplanted into 6-week-old female BALB/c nude mice to establish tumor models. Additionally, the mouse cancer cell line MC38 was subcutaneously transplanted into 6-week-old female and C57BL/6 mice to induce tumor formation. […]. The treatments were administered orally once daily for 2 weeks based on the growth rate observed in the vehicle group. Tumor volume was evaluated three times a week using the formula Tumor volume (TV) = (tumor short diameter ^2 × tumor long diameter)/2. The body weight of the mice was measured three times a week to assess potential toxicity in vivo. […]

The next data set deals with PKCα(h) (Homo sapiens, UniProt P17252). The experiment in a line: Eurofins kinase assay.
A further data set concerns the target Rsk2(h) (Homo sapiens, UniProt P51812). Kind of data set: Eurofins kinase assay.
Another data set deals with PRAK(h) (Homo sapiens, UniProt Q8IW41). Kind of data set: Eurofins kinase assay.
Chain of PRAK(h) (Q8IW41 whole entry): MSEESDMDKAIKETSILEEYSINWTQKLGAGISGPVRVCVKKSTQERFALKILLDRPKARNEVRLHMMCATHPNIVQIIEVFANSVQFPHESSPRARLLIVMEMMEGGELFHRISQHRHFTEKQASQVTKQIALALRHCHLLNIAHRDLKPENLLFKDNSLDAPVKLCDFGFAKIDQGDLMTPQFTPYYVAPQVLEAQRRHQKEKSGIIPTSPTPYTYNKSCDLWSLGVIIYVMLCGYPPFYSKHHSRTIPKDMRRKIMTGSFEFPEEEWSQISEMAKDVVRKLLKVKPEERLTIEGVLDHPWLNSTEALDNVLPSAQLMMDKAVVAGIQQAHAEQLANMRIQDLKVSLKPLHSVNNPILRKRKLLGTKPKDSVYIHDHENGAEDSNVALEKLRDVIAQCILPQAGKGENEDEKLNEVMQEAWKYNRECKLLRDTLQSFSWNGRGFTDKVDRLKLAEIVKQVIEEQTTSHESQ
A further data set addresses BRAF (Homo sapiens, UniProt P15056). Kind of data set: KiNativ cell-based kinase assay in HCT116. Further details: purchased Eurofins (Poitiers, France). On the procedure: (§3) Kinase selectivity profiling in cells was carried out using the KiNativ assay developed by ActivX Biosciences (La Jolla, CA, USA). HCT 116 cells were utilized for the experiment. […] Following the treatment, the cells were lysed, and the lysates were processed for further analysis. Probe labeling was performed using the lysates, and the labeled samples were subjected to LC/MS-MS (Liquid Chromatography/Mass Spectrometry) analysis.

In a further data set the target is T3, ARAF (Homo sapiens, UniProt P10398).
T3 sequence (P10398 1-606): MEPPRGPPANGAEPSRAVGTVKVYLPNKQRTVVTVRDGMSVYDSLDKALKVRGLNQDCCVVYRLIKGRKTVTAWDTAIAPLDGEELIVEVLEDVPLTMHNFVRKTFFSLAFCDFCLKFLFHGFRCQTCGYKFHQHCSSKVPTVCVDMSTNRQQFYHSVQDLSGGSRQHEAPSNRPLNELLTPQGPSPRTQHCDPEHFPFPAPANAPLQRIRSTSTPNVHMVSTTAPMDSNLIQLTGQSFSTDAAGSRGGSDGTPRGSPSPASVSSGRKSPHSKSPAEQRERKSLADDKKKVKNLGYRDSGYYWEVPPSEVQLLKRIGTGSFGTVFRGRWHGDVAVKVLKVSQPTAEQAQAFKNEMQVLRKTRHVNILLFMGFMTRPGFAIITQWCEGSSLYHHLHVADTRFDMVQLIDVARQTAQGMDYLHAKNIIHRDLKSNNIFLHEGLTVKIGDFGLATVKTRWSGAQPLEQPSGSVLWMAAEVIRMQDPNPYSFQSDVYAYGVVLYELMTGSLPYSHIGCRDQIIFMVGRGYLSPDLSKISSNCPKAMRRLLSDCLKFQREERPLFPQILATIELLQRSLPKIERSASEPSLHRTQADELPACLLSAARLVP
Kind of data set: KiNativ cell-based kinase assay in HCT116. Further details: purchased Eurofins (Poitiers, France). To be noted: HCT116, full-length protein; read-out: Binding Affinities in HCT116 (EC50). Here is the method:
as §3

A further data set concerns the target CRAF (Homo sapiens, UniProt P04049). Kind of data set: KiNativ cell-based kinase assay in HCT116. Also noted: purchased Eurofins (Poitiers, France). On the procedure: as §3
The target of a further data set is CHK2(h) (Homo sapiens, UniProt O96017). Kind of data set: Eurofins kinase assay.
Chain of CHK2(h) (O96017 whole entry): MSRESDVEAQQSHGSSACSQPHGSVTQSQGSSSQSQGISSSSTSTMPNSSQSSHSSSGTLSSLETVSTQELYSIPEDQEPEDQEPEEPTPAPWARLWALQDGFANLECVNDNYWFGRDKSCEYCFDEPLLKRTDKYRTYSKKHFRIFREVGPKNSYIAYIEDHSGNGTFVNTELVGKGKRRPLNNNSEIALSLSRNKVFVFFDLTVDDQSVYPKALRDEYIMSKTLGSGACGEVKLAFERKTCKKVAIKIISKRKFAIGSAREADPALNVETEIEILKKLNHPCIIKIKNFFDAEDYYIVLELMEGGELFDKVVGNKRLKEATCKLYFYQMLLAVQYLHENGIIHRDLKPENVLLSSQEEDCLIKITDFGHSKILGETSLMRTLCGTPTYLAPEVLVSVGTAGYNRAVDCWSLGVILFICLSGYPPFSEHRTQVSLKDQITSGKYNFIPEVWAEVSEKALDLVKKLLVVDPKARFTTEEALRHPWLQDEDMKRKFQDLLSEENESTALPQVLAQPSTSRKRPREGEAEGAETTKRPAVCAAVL
Setting [2] is: HCT116, full-length protein, read-out: Binding Affinities in HCT116 (EC50).
Where [3] appears, read: HCT 116 cells, 2 h, 10 µM, read-out: inhibition of probe binding.

One may read the inhibition as the change of the read-out against control, counted positive when it falls. As usually defined, the EC50 is the concentration at which the effect is half-maximal.

Molecules are shown by their SMILES.

Chain of BRAF (P15056 whole entry): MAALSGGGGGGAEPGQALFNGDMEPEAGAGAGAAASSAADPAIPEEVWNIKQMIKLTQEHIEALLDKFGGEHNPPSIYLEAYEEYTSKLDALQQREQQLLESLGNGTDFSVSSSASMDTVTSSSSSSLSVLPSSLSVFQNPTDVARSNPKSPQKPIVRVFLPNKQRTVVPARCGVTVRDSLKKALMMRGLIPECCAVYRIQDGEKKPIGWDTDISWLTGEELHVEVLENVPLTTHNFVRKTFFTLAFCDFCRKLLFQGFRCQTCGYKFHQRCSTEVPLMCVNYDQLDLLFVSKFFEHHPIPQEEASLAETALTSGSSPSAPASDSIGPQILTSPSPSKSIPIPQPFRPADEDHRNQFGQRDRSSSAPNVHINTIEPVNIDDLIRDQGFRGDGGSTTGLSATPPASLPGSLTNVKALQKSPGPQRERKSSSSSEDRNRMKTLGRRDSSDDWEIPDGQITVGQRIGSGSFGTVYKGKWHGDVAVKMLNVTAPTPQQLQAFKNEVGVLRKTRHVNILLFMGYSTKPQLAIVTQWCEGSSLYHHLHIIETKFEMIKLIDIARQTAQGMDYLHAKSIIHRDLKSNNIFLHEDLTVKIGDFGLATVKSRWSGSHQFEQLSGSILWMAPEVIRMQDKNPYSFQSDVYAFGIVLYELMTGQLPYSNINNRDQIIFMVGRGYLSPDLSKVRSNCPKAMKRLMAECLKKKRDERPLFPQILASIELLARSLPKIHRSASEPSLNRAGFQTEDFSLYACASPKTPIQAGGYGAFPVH
Chain of CRAF (P04049 whole entry): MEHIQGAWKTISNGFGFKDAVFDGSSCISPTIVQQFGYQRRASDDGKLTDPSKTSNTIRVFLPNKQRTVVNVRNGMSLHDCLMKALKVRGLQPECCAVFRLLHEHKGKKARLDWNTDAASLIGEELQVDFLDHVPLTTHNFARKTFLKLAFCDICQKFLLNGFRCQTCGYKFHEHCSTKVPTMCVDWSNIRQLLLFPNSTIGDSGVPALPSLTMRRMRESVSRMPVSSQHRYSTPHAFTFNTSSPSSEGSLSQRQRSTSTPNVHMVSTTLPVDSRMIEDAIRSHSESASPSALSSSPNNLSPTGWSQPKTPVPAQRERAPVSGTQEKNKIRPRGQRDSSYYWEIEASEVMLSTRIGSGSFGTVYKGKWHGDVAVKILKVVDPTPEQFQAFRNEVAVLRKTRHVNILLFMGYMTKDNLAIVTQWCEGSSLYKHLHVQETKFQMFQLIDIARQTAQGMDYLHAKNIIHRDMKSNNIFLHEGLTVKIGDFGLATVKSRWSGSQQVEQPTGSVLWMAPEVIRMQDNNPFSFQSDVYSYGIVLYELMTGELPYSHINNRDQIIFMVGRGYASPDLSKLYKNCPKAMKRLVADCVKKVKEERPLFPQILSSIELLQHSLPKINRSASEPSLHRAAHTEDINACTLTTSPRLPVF
T2 sequence (Q02858 23-1122): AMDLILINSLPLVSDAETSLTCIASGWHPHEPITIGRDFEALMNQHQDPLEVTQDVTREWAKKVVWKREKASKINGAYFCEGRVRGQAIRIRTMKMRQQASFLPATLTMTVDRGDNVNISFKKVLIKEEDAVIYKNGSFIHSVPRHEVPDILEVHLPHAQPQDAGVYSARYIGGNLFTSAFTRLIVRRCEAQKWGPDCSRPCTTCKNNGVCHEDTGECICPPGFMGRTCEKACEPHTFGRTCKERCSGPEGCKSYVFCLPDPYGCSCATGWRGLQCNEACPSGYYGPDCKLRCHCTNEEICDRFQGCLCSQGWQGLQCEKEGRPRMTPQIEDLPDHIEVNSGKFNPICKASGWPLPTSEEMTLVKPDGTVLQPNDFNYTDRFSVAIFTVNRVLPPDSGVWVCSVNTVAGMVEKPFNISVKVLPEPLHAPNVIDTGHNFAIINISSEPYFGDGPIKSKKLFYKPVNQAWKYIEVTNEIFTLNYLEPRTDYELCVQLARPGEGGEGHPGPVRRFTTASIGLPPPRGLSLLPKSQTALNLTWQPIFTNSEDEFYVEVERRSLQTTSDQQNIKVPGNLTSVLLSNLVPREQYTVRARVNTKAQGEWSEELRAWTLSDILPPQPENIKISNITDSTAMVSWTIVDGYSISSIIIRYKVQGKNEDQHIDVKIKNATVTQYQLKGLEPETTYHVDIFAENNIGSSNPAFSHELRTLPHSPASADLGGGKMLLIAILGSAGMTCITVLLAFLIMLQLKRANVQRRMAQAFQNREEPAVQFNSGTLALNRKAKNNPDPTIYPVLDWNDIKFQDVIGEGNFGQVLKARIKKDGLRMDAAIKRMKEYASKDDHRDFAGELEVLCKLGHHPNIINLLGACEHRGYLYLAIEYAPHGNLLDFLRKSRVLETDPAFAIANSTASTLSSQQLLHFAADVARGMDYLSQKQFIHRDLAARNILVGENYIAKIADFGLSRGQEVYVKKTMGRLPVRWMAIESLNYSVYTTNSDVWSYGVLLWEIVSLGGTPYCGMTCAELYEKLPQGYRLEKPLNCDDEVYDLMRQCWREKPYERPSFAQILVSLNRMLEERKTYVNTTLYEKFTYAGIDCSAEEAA
Chain of Rsk2(h) (P51812 whole entry): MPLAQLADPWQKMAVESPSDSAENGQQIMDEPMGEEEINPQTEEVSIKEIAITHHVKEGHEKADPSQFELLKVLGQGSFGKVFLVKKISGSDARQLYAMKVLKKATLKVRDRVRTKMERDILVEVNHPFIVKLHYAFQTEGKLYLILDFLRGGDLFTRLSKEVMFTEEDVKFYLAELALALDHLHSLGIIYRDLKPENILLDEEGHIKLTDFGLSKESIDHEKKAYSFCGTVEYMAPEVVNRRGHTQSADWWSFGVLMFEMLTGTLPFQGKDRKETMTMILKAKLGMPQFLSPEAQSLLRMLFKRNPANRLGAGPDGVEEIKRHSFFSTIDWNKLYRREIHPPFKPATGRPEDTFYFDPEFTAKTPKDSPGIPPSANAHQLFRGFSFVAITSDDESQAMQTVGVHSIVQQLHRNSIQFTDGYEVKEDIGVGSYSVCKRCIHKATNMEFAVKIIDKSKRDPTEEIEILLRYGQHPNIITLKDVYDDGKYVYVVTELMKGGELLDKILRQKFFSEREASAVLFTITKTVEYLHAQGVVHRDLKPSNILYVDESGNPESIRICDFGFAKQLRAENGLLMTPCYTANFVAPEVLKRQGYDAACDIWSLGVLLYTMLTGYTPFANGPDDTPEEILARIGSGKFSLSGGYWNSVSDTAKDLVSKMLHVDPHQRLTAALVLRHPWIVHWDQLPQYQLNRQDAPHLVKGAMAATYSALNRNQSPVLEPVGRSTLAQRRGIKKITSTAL

Regarding `O=C(Nc1cc(Nc2ncccc2-c2ncnc3[nH]cnc23)ccc1F)c1cc(C(F)(F)F)cc(C(F)(F)F)c1` [SJ-C1044, N-(5-(3-(9H-purin-6-yl)pyridin-2-ylamino)-2-fluorophenyl)-3,5-bis(trifluoromethyl)benzamide], the inhibition at 10 µM on Met(h) is 13%; against PDGFRβ(h), 11%; against PKCα(h), -14%; on Rsk2(h), -4%; against PRAK(h) it was -15%; on BRAF (setting [3]), 86%. For the same compound, the inhibition at 10 µM at CRAF (setting [3]) amounted to 83%; at CHK2(h), 0%. For the same compound, at CSF1R, the “ligand-dependent phosphorylation of CSF1R” value is given as “significant inhibitory effects”. Besides, on TIE2, the “ligand-dependent phosphorylation of TIE2” value is “significant inhibitory effects”. In addition, the “toxicity and weight loss” value in [1] is “no signs of toxicity or significant weight loss”. The EC50 at BRAF (setting [2]) is 1.3 µM; at ARAF, > 10 µM; on CRAF (setting [2]) it was 1.4 µM.
